# Read-outs that look alike come from different tables or passages of the source.
# What was measured:
# Type in all cases: in vivo
# [1] = tested on: chickweed (common chickweed, Stellaria media); assay: Test C postemergence greenhouse test, plant response rating 0-100; settings: Stellaria media, post-emergence
# Text: (§1) At the same time, plants selected from these crop and weed species and also winter barley (Hordeum vulgare), bermudagrass (Cynodon dactylon), downy bromegrass (Bromus tectorum), canarygrass (Phalaris minor), cocklebur (common cocklebur, Xanthium strumarium), woolly cupgrass (Eriochloa villosa), deadnettle (henbit deadnettle, Lamium amplexicaule), green foxtail (Setaria viridis), goosegrass (Eleusine indica), surinam grass (Brachiaria decumbens), windgrass (Apera spica-venti), chickweed (common chickweed, Stellaria media), kochia (Kochia scoparia), and wild oat (Avena fatua), were planted in pots containing Redi-Earth® planting medium (Scotts Company, 14111 Scottslawn Road, Marysville, Ohio 43041) comprising spaghnum peat moss, vermiculite, wetting agent and starter nutrients and treated with postemergence applications of test chemicals formulated in the same manner. Plants ranged in height from 2 to 18 cm (1- to 4-leaf stage) for postemergence treatments. Treated plants and controls were maintained in a greenhouse for 13 to 15 days, after which time all species were compared to controls and visually evaluated. Plant response ratings, summarized in Table C, are based on a scale of 0 to 100 where 0 is no effect and 100 is complete control. A dash (-) response means no test result.
# [2] = tested on: kochia (Kochia scoparia); assay: as above; settings: Bassia scoparia, post-emergence
# Text: as §1
# [3] = tested on: wild oat (Avena fatua); assay: as above; settings: Avena fatua, post-emergence
# Text: as §1
# [4] = tested on: pigweed (Amaranthus retroflexus); assay: Test C pre-/postemergence greenhouse test, plant response rating 0-100; settings: Amaranthus retroflexus; for pest or weed control at 62 g/ha: 62 g ai/ha; for pest or weed control at 125 g/ha: 125 g ai/ha; for pest or weed control at 250 g/ha: 250 g ai/ha; for pest or weed control at 500 g/ha: 500 g ai/ha
# Summary of the method: (§2)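 Visual rating vs controls after 13–15 d greenhouse; 0 = no effect, 100 = complete control. Pre: seeds in loam/sand, treated at planting. Post: seedlings 2–18 cm (1–4 leaf) in peat-based mix. Compounds in surfactant-containing non-phytotoxic solvent.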
# [5] = tested on: morningglory (Ipomoea coccinea); assay: as above; settings: Ipomoea; for pest or weed control at 62 g/ha: 62 g ai/ha; for pest or weed control at 125 g/ha: 125 g ai/ha; for pest or weed control at 250 g/ha: 250 g ai/ha; for pest or weed control at 500 g/ha: 500 g ai/ha
# Summary of the method: as §2
# [6] = tested on: soybean (Glycine max); assay: as above; settings: Glycine max; for plant injury at 62 g/ha: 62 g ai/ha; for plant injury at 125 g/ha: 125 g ai/ha; for plant injury at 250 g/ha: 250 g ai/ha; for plant injury at 500 g/ha: 500 g ai/ha
# Summary of the method: as §2
# [7] = tested on: velvetleaf (Abutilon theophrasti); assay: as above; settings: Abutilon theophrasti; for pest or weed control at 62 g/ha: 62 g ai/ha; for pest or weed control at 125 g/ha: 125 g ai/ha; for pest or weed control at 250 g/ha: 250 g ai/ha; for pest or weed control at 500 g/ha: 500 g ai/ha
# Summary of the method: as §2
# [8] = tested on: giant foxtail (Setaria faberii); assay: as above; settings: Setaria faberi, post-emergence, Postemergence, read-out: Plant response rating (0 to 100), Foxtail, Giant
# Summary of the method: as §2
# [9] = post-emergence, Postemergence, read-out: Plant response rating (0 to 100), Pigweed
# [10] = post-emergence, Postemergence, scale 0 to 100
# [11] = pre-emergence, Preemergence, read-out: Plant response rating, Pigweed
# [12] = post-emergence, Postemergence, read-out: Plant response rating (0 to 100), Morningglory
# [13] = pre-emergence, Preemergence, read-out: Plant response rating, Morningglory
# [14] = post-emergence, Postemergence, read-out: Plant response rating (0 to 100), Soybean
# [15] = pre-emergence, Preemergence, read-out: Plant response rating, Soybean
# [16] = post-emergence, Postemergence, read-out: Plant response rating (0 to 100), Velvetleaf
# [17] = pre-emergence, Preemergence, read-out: Plant response rating, Velvetleaf
smiles,measurement,setting,value
"COC(OC)(c1ccccc1)c1c[nH]nc1-c1cc(Cl)cc(Cl)c1 [Compound 13, 3-(3,5-dichlorophenyl)-4-(dimethoxyphenylmethyl)-1H-pyrazole]",pest or weed control at 62 g/ha,[1]; 62 g ai/ha,100%
same,pest or weed control at 125 g/ha,[1]; 125 g ai/ha,85%
same,pest or weed control at 250 g/ha,"[1]; 250 g ai/ha, scale 0 to 100",100%
same,pest or weed control at 500 g/ha,"[1]; 500 g ai/ha, scale 0 to 100",100%
same,pest or weed control at 62 g/ha,[2]; 62 g ai/ha,85%
same,pest or weed control at 125 g/ha,[2]; 125 g ai/ha,80%
same,pest or weed control at 250 g/ha,"[2]; 250 g ai/ha, scale 0 to 100",85%
same,pest or weed control at 500 g/ha,"[2]; 500 g ai/ha, scale 0 to 100",90%
same,pest or weed control at 62 g/ha,[3]; 62 g ai/ha,0%
same,pest or weed control at 125 g/ha,[3]; 125 g ai/ha,0%
same,pest or weed control at 250 g/ha,"[3]; 250 g ai/ha, scale 0 to 100",0%
same,pest or weed control at 500 g/ha,"[3]; 500 g ai/ha, scale 0 to 100",5%
same,pest or weed control at 62 g/ha,[4]; [9],75%
same,pest or weed control at 125 g/ha,[4]; [9],100%
same,pest or weed control at 250 g/ha,[4]; [10],100%
same,pest or weed control at 500 g/ha,[4]; [10],100%
same,pest or weed control at 62 g/ha,[4]; [11],90%
same,pest or weed control at 125 g/ha,[4]; [11],100%
same,pest or weed control at 250 g/ha,"[4]; pre-emergence, Preemergence",100%
same,pest or weed control at 500 g/ha,"[4]; pre-emergence, Preemergence",100%
same,pest or weed control at 62 g/ha,[5]; [12],0%
same,pest or weed control at 125 g/ha,[5]; [12],0%
same,pest or weed control at 250 g/ha,[5]; [10],10%
same,pest or weed control at 500 g/ha,[5]; [10],10%
same,pest or weed control at 62 g/ha,[5]; [13],0%
same,pest or weed control at 125 g/ha,[5]; [13],0%
same,pest or weed control at 250 g/ha,"[5]; pre-emergence, Preemergence",0%
same,pest or weed control at 500 g/ha,"[5]; pre-emergence, Preemergence",0%
same,plant injury at 62 g/ha,[6]; [14],0%
same,plant injury at 125 g/ha,[6]; [14],0%
same,plant injury at 250 g/ha,[6]; [10],0%
same,plant injury at 500 g/ha,[6]; [10],10%
same,plant injury at 62 g/ha,[6]; [15],0%
same,plant injury at 125 g/ha,[6]; [15],0%
same,plant injury at 250 g/ha,"[6]; pre-emergence, Preemergence",75%
same,plant injury at 500 g/ha,"[6]; pre-emergence, Preemergence",60%
same,pest or weed control at 62 g/ha,[7]; [16],70%
same,pest or weed control at 125 g/ha,[7]; [16],75%
same,pest or weed control at 250 g/ha,[7]; [10],85%
same,pest or weed control at 500 g/ha,[7]; [10],80%
same,pest or weed control at 62 g/ha,[7]; [17],60%
same,pest or weed control at 125 g/ha,[7]; [17],85%
same,pest or weed control at 250 g/ha,"[7]; pre-emergence, Preemergence",75%
same,pest or weed control at 500 g/ha,"[7]; pre-emergence, Preemergence",100%
same,pest or weed control at 62 g/ha,[8]; 62 g ai/ha,0%
same,pest or weed control at 125 g/ha,[8]; 125 g ai/ha,0%

# — patent publication US10167262B2, “Herbicidal substituted 3-arylpyrazoles” (FMC CORPORATION, priority 2014, dated 2019)
